Results from patent US5597820A, “1, 4-benzoxazine derivative and pharmaceutical compositions containing the same” (Kanebo, Ltd., priority 1994, dated 1997).

Columns and labels:
Na^+ /H^+ exchange = biological target: T1, Na^+ /H^+ exchange (Rattus norvegicus, UniProt P26431); assay: Na^+ /H^+ Exchange inhibitory activity (sodium propionate-induced swelling of platelets); type: cell-based, rat (male Wistar rats); conditions: rat platelet-rich plasma, 37° C.
T1 construct: A supernatant was separated to prepare platelet-rich plasma; endogenous in cells; host or cells: platelets in platelet-rich plasma from male Wistar rats (abdominal aorta blood)
T1 sequence (P26431 whole entry): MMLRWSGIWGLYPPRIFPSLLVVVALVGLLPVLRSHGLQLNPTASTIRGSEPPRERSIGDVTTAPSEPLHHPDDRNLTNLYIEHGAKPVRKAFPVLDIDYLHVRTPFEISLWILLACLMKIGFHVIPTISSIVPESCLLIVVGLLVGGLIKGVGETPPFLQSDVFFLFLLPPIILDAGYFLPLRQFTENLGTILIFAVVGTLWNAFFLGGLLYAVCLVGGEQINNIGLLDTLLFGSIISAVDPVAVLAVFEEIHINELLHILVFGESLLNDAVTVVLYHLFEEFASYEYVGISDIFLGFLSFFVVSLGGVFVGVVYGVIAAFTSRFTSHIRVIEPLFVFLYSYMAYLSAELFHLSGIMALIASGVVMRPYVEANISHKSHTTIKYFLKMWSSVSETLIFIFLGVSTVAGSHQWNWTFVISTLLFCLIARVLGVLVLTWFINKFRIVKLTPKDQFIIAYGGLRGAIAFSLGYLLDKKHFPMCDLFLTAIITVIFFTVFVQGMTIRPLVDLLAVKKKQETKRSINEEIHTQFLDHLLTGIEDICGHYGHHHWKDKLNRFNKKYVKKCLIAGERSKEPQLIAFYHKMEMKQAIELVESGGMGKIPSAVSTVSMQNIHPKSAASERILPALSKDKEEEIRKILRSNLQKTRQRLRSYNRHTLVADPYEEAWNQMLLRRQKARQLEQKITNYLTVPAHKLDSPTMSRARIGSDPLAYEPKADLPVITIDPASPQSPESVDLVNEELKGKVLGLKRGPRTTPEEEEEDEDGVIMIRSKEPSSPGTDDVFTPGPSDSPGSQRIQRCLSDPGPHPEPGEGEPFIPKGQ
Method: The compounds of the present invention were assessed for their Na^+ /H^+ exchange inhibitory activity based on an activity to inhibit sodium propionate-induced swelling of platelets in accordance with the method of Rosskoph et al. [Journal of Hypertension, 9, 231-238 (1991)].
First, platelet-rich plasma was prepared in accordance with the method of Mammen et al. [Diabetes Research and Clinical Practice, 9(3), 265-272 (1990)]. Briefly, male Wistar rats weighing 190 to 420 g were abdominally operated under anesthesia with ether and blood was taken from the abdominal aorta. For inhibiting blood coagulation, ACD solution (a mixture of 65 mM citric acid, 85 mM sodium citrate, 11 mM dextrose) was added to blood and this treated blood was centrifuged at 90× g for 10 minutes. A supernatant was separated to prepare platelet-rich plasma.
Then, a solution of the test compounds in dimethylsulfoxide was added to 140 mM sodium propionate buffer solution. To this mixture was added the platelet-rich plasma prepared above and a decrease in optical density was recorded with the passage of time at 37° C. using a platelet aggregometer (turbidimeter) and a X-Y recorder to calculate a decrease rate in optical density after mixing with platelet-rich plasma [decrease rate in optical density in the presence of the test compounds (D)]. On the other hand, the solvent dimethylsulfoxide alone was used instead of the solution of the test compounds and the decrease in optical density was recorded in the similar manner to calculate a decrease rate in optical density [control (C)]. A swelling inhibitory rate (%) was calculated using the following formula:
Swelling inhibitory rate (%)=(1-D/C)×100

[1] = tested on: myocardial infarction lesion; assay: Activity to reduce myocardial infarction lesion (rat acute myocardial infarction model); type: in vivo, rat (male Sprague-Dawley rats); conditions: femoral vein
Method: Using a rat acute myocardial infarction model, the compounds of the present invention were assessed for their activity to reduce myocardial infarction lesion in accordance with the method of Petty et al. [European Journal of Pharmacology, 192, 383-388 (1991)]. Male Sprague-Dawley rats (weighing 320 to 430 g) were anesthetized by intraperitoneal administration of sodium pentobarbital (50 mg/kg). Under anesthesia, the rats were cannulated via trachea and the cannula was linked to a respirator and then the body temperature was maintained at 37° C. The chest of the rats were opened at the left fifth intercostal space and the pericardium was cut open to reveal the heart. Then a solution of the test compound in a mixed solvent of polyethylene glycol 400, ethanol and a physiological saline [3:3:14 (v/v)] was administered into the femoral vein. Ten minutes after the administration of the compound, the origin of the left coronary artery was occluded. After occlusion for 30 minutes, reperfusion was carried out for 2 hours. After reperfusion, the heart was removed and the origin of the left coronary artery was ligated again. The heart was cannulated via the aorta and a 0.025% solution of Evans blue was perfused using a syringe pump to distinguish an ischemic region (not stained with Evans blue) and a non-ischemic region (stained with Evans blue). The ischemic region was incubated in a 0.1% triphenyltetrazolium chloride (TTC) solution at 37° C. for 30 minutes to distinguish a TTC-stained region and a non-stained region (infarction region).

reperfusion arrhythmia = assay: Inhibitory activity against reperfusion arrhythmia (rat acute myocardial infarction model); type: in vivo, rat (male Sprague-Dawley rats); conditions: femoral vein
Method: Using a rat acute myocardial infarction model, the compounds of the present invention were assessed for their inhibitory activity against reperfusion arrhythmia in accordance with the method of […] al. [European Journal of Pharmacology, 194, 7-10 (1991)]. Male Sprague-Dawley rats (weighing 310 to 490 g) were anesthetized by intraperitoneal administration of sodium pentobarbital (50 mg/kg). Under anesthesia, the rats were cannulated via trachea and the cannula was linked to a respirator. An electrocardiogram (the lead II) was obtained from electrodes attached to the limbs using bioelectric amplifier while maintaining the body temperature at 37° C. The chest of the rats were opened at the left fifth intercostal space and the pericardium was cut open to reveal the heart. Then a solution of the test compound in a mixed solvent of polyethylene glycol 400, ethanol and a physiological saline [3:3:14 (v/v)] was administered into the femoral vein. Ten minutes after the administration of the compound, the origin of the left coronary artery was occluded. After occlusion for 5 minutes, reperfusion was carried out for 10 minutes and a duration (second) of a ventricular fibrillation after reperfusion was measured from the electrocardiogram (mean±standard error, n=3 to 10). The ventricular fibrillation was assessed in accordance with the guideline of The Lambeth Convention [Cardiovascular Research, 22, 447-455 (1988)]. On the other hand, the mixed solvent of polyethylene glycol 400, ethanol and a physiological saline [3:3:14 (v/v)] alone was used as a control and a duration (second) of the ventricular fibrillation was measured in a similar manner. Using male Sprague-Dawley rats weighing 310 to 440 g, the duration (second) of the ventricular fibrillation was measured in the same manner as in Test 1 (n=4 to 10). Using male Sprague-Dawley rats weighing 310 to 400 g, the duration (second) of the ventricular fibrillation was measured in the same manner as in Test 1 (n=4 to 6).

[2] = Test 2 (Table 4), 0.1 mg/kg, control 146.1 ± 5.9, **: p < 0.01
[3] = Test 2 (Table 7), 1 mg/kg, control 45.2 ± 4.1, **: p < 0.01
[4] = Test 3 (Table 5), 0.1 mg/kg, control 171.0 ± 5.8, Example 19 *: p < 0.05, Example 21 **: p < 0.01

Structure (SMILES)	IC50 (Na^+ /H^+ exchange)	other results
N=C(N)NC(=O)c1nc(Cl)c(N)nc1N [Amiloride, amiloride, reference compound]	13000 nM	
CC(C)N1C(=O)C(C)(C)Oc2cc(C(=O)N=C(N)N)ccc21 [Example 1, N-amidino-2,2-dimethyl-4-(2-propyl)-3-oxo-3,4-dihydro-2H-1,4-benzoxazine-7-carboxamide]	200 nM	
CC1Oc2cc(C(=O)NC(=N)N)ccc2N(C(C)C)C1=O (centres unmarked) [Example 2, N-amidino-2-methyl-4-(2-propyl)-3-oxo-3,4-dihydro-2H-1,4-benzoxazine-7-carboxamide]	94 nM	Infarction region/ischemic region (%) (mean ± standard error) ([1]; Test 1 (Table 6), 0.01 mg/kg, control 51.4 ± 2.4): 41.7 ± 10.3%; Infarction region/ischemic region (%) (mean ± standard error) ([1]; Test 1 (Table 6), 0.1 mg/kg, control 51.4 ± 2.4): 35.6 ± 3.5%; Infarction region/ischemic region (%) (mean ± standard error) ([1]; Test 1 (Table 6), 1 mg/kg, control 51.4 ± 2.4, **: p < 0.01): 7.2 ± 4.9%; Duration (second) of ventricular fibrillation (mean ± standard error) (reperfusion arrhythmia; Test 1 (Table 3), 0.01 mg/kg, control 92.6 ± 20.2): 118.9 ± 59.4 s; Duration (second) of ventricular fibrillation (mean ± standard error) (reperfusion arrhythmia; Test 1 (Table 3), 0.1 mg/kg, control 92.6 ± 20.2, *: p < 0.05): 19.1 ± 12.4 s; Duration (second) of ventricular fibrillation (mean ± standard error) (reperfusion arrhythmia; Test 1 (Table 3), 1 mg/kg, control 92.6 ± 20.2, *: p < 0.05): 0.0 ± 0.0 s
CC(C)N1C(=O)COc2cc(C(=O)NC(=N)N)ccc21 [Example 3, N-amidino-4-(2-propyl)-3-oxo-3,4-dihydro-2H-1,4-benzoxazine-7-carboxamide]	170 nM	
CCN1C(=O)C(C)Oc2cc(C(=O)NC(=N)N)ccc21 (centres unmarked) [Example 4, N-amidino-4-ethyl-2-methyl-3-oxo-3,4-dihydro-2H-1,4-benzoxazine-7-carboxamide]	160 nM	
CC(C)N1C(=O)C(C)(C)Oc2ccc(C(=O)NC(=N)N)cc21.Cl [Example 5, N-amidino-2,2-dimethyl-4-(2-propyl)-3-oxo-3,4-dihydro-2H-1,4-benzoxazine-6-carboxamide hydrochloride]	120 nM	Duration (second) of ventricular fibrillation (mean ± standard error) (reperfusion arrhythmia; [2]): 80.2 ± 27.8 s
CCN1C(=O)C(C)Oc2ccc(C(=O)NC(=N)N)cc21 (centres unmarked) [Example 6, N-amidino-4-ethyl-2-methyl-3-oxo-3,4-dihydro-2H-1,4-benzoxazine-6-carboxamide]	290 nM	
CCN1C(=O)C(C)(C)Oc2ccc(C(=O)NC(=N)N)cc21 [Example 7, N-amidino-2,2-dimethyl-4-ethyl-3-oxo-3,4-dihydro-2H-1,4-benzoxazine-6-carboxamide]	380 nM	
CC1Oc2cc(C(=O)NC(=N)N)ccc2NC1=O (centres unmarked) [Example 8, N-amidino-2-methyl-3-oxo-3,4-dihydro-2H-1,4-benzoxazine-7-carboxamide]	810 nM	
CCC1Oc2cc(C(=O)NC(=N)N)ccc2N(C(C)C)C1=O (centres unmarked) [Example 9, N-amidino-2-ethyl-4-(2-propyl)-3-oxo-3,4-dihydro-2H-1,4-benzoxazine-7-carboxamide]	34 nM	
CC1Oc2cc(C(=O)NC(=N)N)ccc2N(C2CCCC2)C1=O (centres unmarked) [Example 10, N-amidino-4-cyclopentyl-2-methyl-3-oxo-3,4-dihydro-2H-1,4-benzoxazine-7-carboxamide]	62 nM	
CCN1C(=O)COc2cc(C(=O)NC(=N)N)ccc21 [Example 12, N-amidino-4-ethyl-3-oxo-3,4-dihydro-2H-1,4-benzoxazine-7-carboxamide]	360 nM	
CCC1Oc2cc(C(=O)NC(=N)N)ccc2N(CC)C1=O (centres unmarked) [Example 13, N-amidino-2,4-diethyl-3-oxo-3,4-dihydro-2H-1,4-benzoxazine-7-carboxamide]	83 nM	
CC[C@@H]1Oc2cc(C(=O)NC(=N)N)ccc2N(C(C)C)C1=O [Example 14, (S)-N-Amidino-2-ethyl-4-(2-propyl)-3-oxo-3,4-dihydro-2H-1,4-benzoxazine-7-carboxamide]	73 nM	
CC[C@H]1Oc2cc(C(=O)NC(=N)N)ccc2N(C(C)C)C1=O [Example 15, (R)-N-Amidino-2-ethyl-4-(2-propyl)-3-oxo-3,4-dihydro-2H-1,4-benzoxazine-7-carboxamide]	36 nM	
CC[C@@H]1Oc2cc(C(=O)NC(=N)N)ccc2N(CC)C1=O [Example 16, (S)-N-amidino-2,4-diethyl-3-oxo-3,4-dihydro-2H-1,4-benzoxazine-7-carboxamide]	45 nM	
CC[C@H]1Oc2cc(C(=O)NC(=N)N)ccc2N(CC)C1=O [Example 17, (R)-N-amidino-2,4-diethyl-3-oxo-3,4-dihydro-2H-1,4-benzoxazine-7-carboxamide]	71 nM	
CC[C@H]1Oc2cc(C(=O)NC(=N)N)ccc2N(C(C)C)C1=O.Cl [Example 18, (R)-N-Amidino-2-ethyl-4-(2-propyl)-3-oxo-3,4-dihydro-2H-1,4-benzoxazine-7-carboxamide hydrochloride]	38 nM	Infarction region/ischemic region (%) (mean ± standard error) [1, 3]: 21.7 ± 5.5%; Duration (second) of ventricular fibrillation (mean ± standard error) (reperfusion arrhythmia; Test 2 (Table 4), 0.01 mg/kg, control 146.1 ± 5.9): 75.5 ± 29.2 s; Duration (second) of ventricular fibrillation (mean ± standard error) (reperfusion arrhythmia; [2]): 31.4 ± 20.6 s; Duration (second) of ventricular fibrillation (mean ± standard error) (reperfusion arrhythmia; Test 2 (Table 4), 1 mg/kg, control 146.1 ± 5.9, **: p < 0.01): 0.0 ± 0.0 s
CC[C@H]1Oc2cc(C(=O)NC(=N)N)ccc2N(C(C)C)C1=O.CS(=O)(=O)O [Example 19, (R)-N-Amidino-2-ethyl-4-(2-propyl)-3-oxo-3,4-dihydro-2H-1,4-benzoxazine-7-carboxamide methanesulfonate]	44 nM	Infarction region/ischemic region (%) (mean ± standard error) [1, 3]: 20.7 ± 5.2%; Duration (second) of ventricular fibrillation (mean ± standard error) (reperfusion arrhythmia; Test 3 (Table 5), 0.01 mg/kg, control 171.0 ± 5.8): 116.8 ± 40.2 s; Duration (second) of ventricular fibrillation (mean ± standard error) (reperfusion arrhythmia; [4]): 36.5 ± 32.2 s; Duration (second) of ventricular fibrillation (mean ± standard error) (reperfusion arrhythmia; Test 3 (Table 5), 1 mg/kg, control 171.0 ± 5.8, *: p < 0.05): 0.0 ± 0.0 s
CC[C@@H]1Oc2cc(C(=O)NC(=N)N)ccc2N(CC)C1=O.Cl [Example 20, (S)-N-amidino-2,4-diethyl-3-oxo-3,4-dihydro-2H-1,4-benzoxazine-7-carboxamide hydrochloride]	49 nM	Duration (second) of ventricular fibrillation (mean ± standard error) (reperfusion arrhythmia; [2]): 27.2 ± 27.2 s
CC[C@@H]1Oc2cc(C(=O)NC(=N)N)ccc2N(CC)C1=O.CS(=O)(=O)O [Example 21, (S)-N-amidino-2,4-diethyl-3-oxo-3,4-dihydro-2H-1,4-benzoxazine-7-carboxamide methanesulfonate]	89 nM	Duration (second) of ventricular fibrillation (mean ± standard error) (reperfusion arrhythmia; [4]): 69.0 ± 31.1 s
